# From ChEMBL document CHEMBL5291721, “A preclinical secondary pharmacology resource illuminates target-adverse drug reaction associations of marketed drugs” (Nat Commun, 2023)
# Legend:
# [1] = target: T1, Muscarinic acetylcholine receptor M1 (Homo sapiens, UniProt P11229); assay type: functional, cell-based
# T1 sequence (P11229 whole entry): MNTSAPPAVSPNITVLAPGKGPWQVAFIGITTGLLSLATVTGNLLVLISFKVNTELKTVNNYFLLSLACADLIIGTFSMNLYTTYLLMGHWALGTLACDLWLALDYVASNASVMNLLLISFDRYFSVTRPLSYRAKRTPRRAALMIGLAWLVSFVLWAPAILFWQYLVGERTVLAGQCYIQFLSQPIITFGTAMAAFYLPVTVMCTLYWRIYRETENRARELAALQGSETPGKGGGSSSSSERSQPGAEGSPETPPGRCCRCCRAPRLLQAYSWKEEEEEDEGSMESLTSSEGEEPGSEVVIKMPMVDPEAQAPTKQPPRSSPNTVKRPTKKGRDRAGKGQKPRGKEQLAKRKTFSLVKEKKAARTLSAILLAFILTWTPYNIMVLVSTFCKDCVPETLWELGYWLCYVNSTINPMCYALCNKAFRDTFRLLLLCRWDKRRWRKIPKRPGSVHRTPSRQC
# [2] = target: Sodium-dependent serotonin transporter (Homo sapiens, UniProt P31645)
# Sequence of Sodium-dependent serotonin transporter (P31645 whole entry): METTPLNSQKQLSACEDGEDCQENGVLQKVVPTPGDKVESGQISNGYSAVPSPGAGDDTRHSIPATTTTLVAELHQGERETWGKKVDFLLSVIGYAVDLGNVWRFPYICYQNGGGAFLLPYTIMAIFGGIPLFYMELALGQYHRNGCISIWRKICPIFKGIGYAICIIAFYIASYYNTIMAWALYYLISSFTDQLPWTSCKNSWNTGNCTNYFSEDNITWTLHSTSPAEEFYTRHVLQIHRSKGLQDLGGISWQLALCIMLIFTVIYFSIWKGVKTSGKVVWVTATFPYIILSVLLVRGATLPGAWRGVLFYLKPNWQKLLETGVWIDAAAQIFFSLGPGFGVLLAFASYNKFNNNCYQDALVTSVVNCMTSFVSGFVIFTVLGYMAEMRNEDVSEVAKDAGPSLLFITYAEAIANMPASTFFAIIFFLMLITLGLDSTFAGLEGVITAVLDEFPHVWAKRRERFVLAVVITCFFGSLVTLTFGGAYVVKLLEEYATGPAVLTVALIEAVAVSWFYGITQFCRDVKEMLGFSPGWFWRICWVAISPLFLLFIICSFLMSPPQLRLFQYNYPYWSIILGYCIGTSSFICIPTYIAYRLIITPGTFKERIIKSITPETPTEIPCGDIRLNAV
# [3] = target: T2, Alpha-2C adrenergic receptor (Homo sapiens, UniProt P18825); assay type: functional
# T2 sequence (P18825 whole entry): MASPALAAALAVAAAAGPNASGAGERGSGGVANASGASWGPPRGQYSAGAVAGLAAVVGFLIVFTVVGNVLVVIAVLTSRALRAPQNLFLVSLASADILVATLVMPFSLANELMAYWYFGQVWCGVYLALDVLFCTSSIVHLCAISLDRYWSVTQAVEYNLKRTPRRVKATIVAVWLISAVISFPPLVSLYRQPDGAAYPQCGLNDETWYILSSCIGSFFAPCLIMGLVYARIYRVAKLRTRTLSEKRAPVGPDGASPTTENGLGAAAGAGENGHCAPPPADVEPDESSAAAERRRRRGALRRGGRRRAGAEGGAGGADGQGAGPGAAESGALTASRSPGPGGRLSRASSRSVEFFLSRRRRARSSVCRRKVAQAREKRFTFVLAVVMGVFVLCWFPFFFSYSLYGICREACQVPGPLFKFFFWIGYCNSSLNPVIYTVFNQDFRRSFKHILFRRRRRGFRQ
# [4] = target: Delta-type opioid receptor (Homo sapiens, UniProt P41143)
# Sequence of Delta-type opioid receptor (P41143 whole entry): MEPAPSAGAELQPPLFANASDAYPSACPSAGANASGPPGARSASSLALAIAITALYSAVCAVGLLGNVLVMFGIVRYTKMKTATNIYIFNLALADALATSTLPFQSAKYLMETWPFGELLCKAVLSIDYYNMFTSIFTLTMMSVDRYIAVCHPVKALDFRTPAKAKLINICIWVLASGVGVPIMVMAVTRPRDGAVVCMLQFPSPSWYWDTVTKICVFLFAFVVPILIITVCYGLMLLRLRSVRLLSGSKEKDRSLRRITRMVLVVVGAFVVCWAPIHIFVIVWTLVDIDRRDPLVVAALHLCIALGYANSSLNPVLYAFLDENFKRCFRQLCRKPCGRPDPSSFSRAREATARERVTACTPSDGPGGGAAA
# [5] = target: Kappa-type opioid receptor (Homo sapiens, UniProt P41145)
# Sequence of Kappa-type opioid receptor (P41145 whole entry): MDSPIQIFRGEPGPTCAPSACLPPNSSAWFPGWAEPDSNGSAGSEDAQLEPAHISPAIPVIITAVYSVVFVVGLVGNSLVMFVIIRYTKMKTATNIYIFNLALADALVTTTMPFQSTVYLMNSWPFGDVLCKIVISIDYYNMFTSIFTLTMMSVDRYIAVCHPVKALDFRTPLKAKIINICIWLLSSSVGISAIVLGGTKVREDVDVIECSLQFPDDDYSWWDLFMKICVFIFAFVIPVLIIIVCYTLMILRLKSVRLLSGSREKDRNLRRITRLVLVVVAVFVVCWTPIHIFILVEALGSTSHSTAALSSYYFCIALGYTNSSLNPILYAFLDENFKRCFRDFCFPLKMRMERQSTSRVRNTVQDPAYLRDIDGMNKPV
# [6] = target: T3, Muscarinic acetylcholine receptor M2 (Homo sapiens, UniProt P08172); assay type: functional, cell-based
# T3 sequence (P08172 whole entry): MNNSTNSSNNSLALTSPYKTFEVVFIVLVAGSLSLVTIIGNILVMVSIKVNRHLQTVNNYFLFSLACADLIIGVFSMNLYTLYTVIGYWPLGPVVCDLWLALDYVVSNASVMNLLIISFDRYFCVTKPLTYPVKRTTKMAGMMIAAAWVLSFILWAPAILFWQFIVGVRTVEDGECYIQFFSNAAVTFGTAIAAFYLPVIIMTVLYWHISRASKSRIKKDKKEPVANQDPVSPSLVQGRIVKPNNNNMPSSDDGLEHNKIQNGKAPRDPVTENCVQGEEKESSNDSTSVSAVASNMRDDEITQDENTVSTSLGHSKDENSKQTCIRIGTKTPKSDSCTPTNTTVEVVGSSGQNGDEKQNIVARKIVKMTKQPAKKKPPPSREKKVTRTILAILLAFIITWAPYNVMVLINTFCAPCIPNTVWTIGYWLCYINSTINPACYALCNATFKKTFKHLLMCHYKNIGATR
# Note: assay procedure not described here.
SMILES,AC50 [1],AC50 [2],AC50 [3],AC50 [4],AC50 [5],AC50 [6]
CC[C@@H]1C[C@]1(NC(=O)[C@@H]1C[C@@H]2CN1C(=O)[C@H](C(C)(C)C)NC(=O)OCC(C)(C)CCCCc1cccc3c1CN(C3)C(=O)O2)C(=O)NS(=O)(=O)C1CC1,23.4 µM,> 30 µM,–,–,–,–
CC(=O)NO [ACETOHYDROXAMIC ACID],> 30 µM,> 30 µM,–,–,–,–
CC(=O)NCCCCCC(=O)O [ACEXAMIC ACID],> 30 µM,> 30 µM,–,–,–,–
C=C(C)CNc1ccc(C(C)C(=O)O)cc1 (stereo not drawn) [ALMINOPROFEN],> 30 µM,> 30 µM,–,–,–,–
C[C@H]1CN(C[C@H](Cc2ccccc2)C(=O)NCC(=O)O)CC[C@@]1(C)c1cccc(O)c1 [ALVIMOPAN],> 30 µM,> 30 µM,–,–,–,–
CC(C)NC(=N)NC(=N)Nc1ccc(Cl)c(Cl)c1 [CHLORPROGUANIL],–,5.81 µM,8.9 µM,> 30 µM,> 30 µM,–
C[N+](C)(C)CCOP(=O)(O)OP(=O)([O-])OC[C@H]1O[C@@H](n2ccc(N)nc2=O)[C@H](O)[C@@H]1O [CITICOLINE],> 30 µM,> 30 µM,> 30 µM,> 30 µM,> 30 µM,> 30 µM
C[C@H]1O[C@@H](O[C@H]2CC[C@@]3(C)[C@H](CC[C@@H]4[C@@H]3C[C@@H](O)[C@]3(C)[C@@H](C5=CC(=O)OC5)CC[C@]43O)C2)C[C@H](O)[C@@H]1O[C@H]1C[C@H](O)[C@H](O[C@H]2C[C@H](O)[C@H](O[C@@H]3O[C@H](CO)[C@@H](O)[C@H](O)[C@H]3O)[C@@H](C)O2)[C@@H](C)O1 [DESLANOSIDE],> 30 µM,> 30 µM,–,–,–,–
CC[C@H]1OC(=O)[C@H](C)[C@@H](O[C@H]2C[C@@](C)(OC)[C@@H](O)[C@H](C)O2)[C@H](C)[C@@H](O[C@@H]2O[C@H](C)C[C@H](N(C)C)[C@H]2O)[C@](C)(O)C[C@@H](C)[C@@H]2N[C@@H](COCCOC)O[C@H]([C@H]2C)[C@]1(C)O [DIRITHROMYCIN],> 30 µM,> 30 µM,–,–,–,–
CCCCc1oc2ccc(NS(C)(=O)=O)cc2c1C(=O)c1ccc(OCCCN(CCCC)CCCC)cc1 [DRONEDARONE],> 30 µM,3.31 µM,–,–,–,–
CC(C)C(=O)Oc1ccc(CO)cc1[C@H](CCN(C(C)C)C(C)C)c1ccccc1 [FESOTERODINE],> 30 µM,> 30 µM,–,–,–,–
C[N+](C)(CCCCCC[N+](C)(C)C1c2ccccc2-c2ccccc21)C1c2ccccc2-c2ccccc21 [HEXAFLUORENIUM],> 30 µM,3.02 µM,–,–,–,–
CCCCC(CC)CN1CN(CC(CC)CCCC)CC(C)(N)C1 (stereo not drawn) [HEXETIDINE],> 30 µM,6.51 µM,–,–,–,–
Cc1cc(=O)oc2cc(O)ccc12 [HYMECROMONE],> 30 µM,> 30 µM,–,–,–,–
COc1c2occc2c(OC)c2c(=O)cc(C)oc12 [KHELLIN],> 30 µM,> 30 µM,–,–,–,–
CC(C)[C@@H]1CC[C@@H](C)C[C@H]1O [LEVOMENTHOL],> 30 µM,> 30 µM,–,–,–,–

SMILES,AC50 [1],AC50 [2],AC50 [3],AC50 [4],AC50 [5],AC50 [6]
COC(=O)[C@@H](N)Cc1ccc(O)c(O)c1 [MELEVODOPA],> 30 µM,> 30 µM,–,–,–,–
C[N+]1(C)CCCC(OC(=O)C(O)(c2ccccc2)c2ccccc2)C1 (stereo not drawn) [MEPENZOLATE],> 30 µM,20.4 µM,–,–,–,–
C=N[C@@H](C(=O)N[C@@H]1C(=O)N2[C@@H]1SC(C)(C)[C@@H]2C(=O)O)c1ccccc1 [METAMPICILLIN],> 30 µM,> 30 µM,–,–,–,–
O=C(NNCS(=O)(=O)O)c1ccncc1 [METHANIAZIDE],> 30 µM,> 30 µM,–,–,–,–
Cc1cc(=O)[nH]c(=S)[nH]1 [METHYLTHIOURACIL],> 30 µM,> 30 µM,–,–,–,–
CN(C)c1ccc(O)c2c1C[C@H]1C[C@H]3[C@H](N(C)C)C(O)=C(C(N)=O)C(=O)[C@@]3(O)C(O)=C1C2=O [MINOCYCLINE],> 30 µM,> 30 µM,–,–,–,–
CCNC(=O)/C=C(C)/C=C/C=C(C)/C=C/c1c(C)cc(OC)c(C)c1C [MOTRETINIDE],> 30 µM,28.3 µM,–,–,–,–
C=CC(=O)Nc1cccc(Oc2nc(Nc3ccc(N4CCN(C)CC4)cc3)nc3ccsc23)c1 [OLMUTINIB],> 30 µM,> 30 µM,–,–,–,–
CCCCC1C(=O)N(c2ccccc2)N(c2ccc(O)cc2)C1=O (stereo not drawn) [OXYPHENBUTAZONE ANHYDROUS],> 30 µM,> 30 µM,–,–,–,–
O=C(O)CN(CCN(CC(=O)O)CC(=O)O)CCN(CC(=O)O)CC(=O)O [PENTETIC ACID],> 30 µM,0.0429 µM,–,–,–,–
Nc1cccc2c1C(=O)N(C1CCC(=O)NC1=O)C2=O (stereo not drawn) [POMALIDOMIDE],> 30 µM,> 30 µM,–,–,–,–
C[Se]CC[C@H](N)C(=O)O [SELENOMETHIONINE],> 30 µM,> 30 µM,–,–,–,–
Cc1ccsc1C(=CCCN1CCC[C@@H](C(=O)O)C1)c1sccc1C [TIAGABINE],> 30 µM,> 30 µM,–,–,–,–
Cc1ccccc1C(=O)Nc1ccc(C(=O)N2CCCC(O)c3cc(Cl)ccc32)c(C)c1 (stereo not drawn) [TOLVAPTAN],> 30 µM,> 30 µM,–,–,–,–
CC[C@]12CCCN3CCc4c(n(c5ccccc45)[C@@](O)(C(=O)OC)C1)[C@@H]32 [VINCAMINE],> 30 µM,> 30 µM,–,–,–,–
